Legend:
[1] = Inhibition of human phosphoenolpyruvate carboxykinase (PEPCK).
[2] = Binding affinity against phosphoenolpyruvate carboxykinase (PEPCK) using isothermal titration calorimetry(ITC)

SMILES | IC50 [1] | Ki [2]
CCCCn1c(=O)n(Cc2ccccc2F)c(=O)c2[nH]c(Cc3ccc(NC(C)=O)cc3)nc21 | 2110 nM | –
CC(=O)Nc1ccc(Cc2nc3c(=O)n(Cc4ccccc4F)c(=O)n(CC4CCCO4)c3[nH]2)cc1 (stereo unspecified) | 5700 nM | –
CC(=O)Nc1ccc(Cc2nc3c(=O)n(Cc4ccccc4F)c(=O)n(CC4CCCC4)c3[nH]2)cc1 | 3050 nM | –
CC(=O)Nc1ccc(Cc2nc3c([nH]2)c(=O)n(Cc2ccccc2F)c(=O)n3CC(C)C)cc1 | 2020 nM | –
CCCn1c(=O)n(Cc2ccccc2F)c(=O)c2[nH]c(Cc3ccc(NC(C)=O)cc3)nc21 | 1490 nM | –
CC(=O)Nc1ccc(Cc2nc3c(=O)n(Cc4ccccc4F)c(=O)n(Cc4ccoc4)c3[nH]2)cc1 | 4500 nM | –
CCCCCCn1c(=O)n(Cc2ccccc2F)c(=O)c2[nH]c(Cc3ccc(NC(C)=O)cc3)nc21 | 8900 nM | –
COC(=O)[C@H]1CC1Cn1c(=O)n(Cc2ccccc2F)c(=O)c2[nH]c(Cc3ccc(NC(C)=O)cc3)nc21 (stereo partly specified) | 3000 nM | –
CC(=O)Nc1ccc(Cc2nc3c([nH]2)c(=O)n(Cc2ccccc2F)c(=O)n3CC2CC2)cc1 | 690 nM | –
CC(=O)Nc1ccc(Cc2nc3c([nH]2)c(=O)n(Cc2ccccc2F)c(=O)n3CC2C[C@@H]2C)cc1 (stereo partly specified) | 1820 nM | –
CC(=O)Nc1ccc(Cc2nc3c(=O)n(Cc4ccccc4F)c(=O)n(CC4CCCCO4)c3[nH]2)cc1 (stereo unspecified) | 4500 nM | –

Results, then the molecule that gave them:

IC50 [1] | Ki [2] | SMILES
2850 nM | – | CC(=O)Nc1ccc(Cc2nc3c(=O)n(Cc4ccccc4F)c(=O)n(CCCCO)c3[nH]2)cc1
5450 nM | – | CC(=O)Nc1ccc(Cc2nc3c(=O)n(Cc4ccccc4F)c(=O)n(CCCO)c3[nH]2)cc1
2000 nM | – | CC(=O)Nc1ccc(Cc2nc3c(=O)n(Cc4ccccc4F)c(=O)n(CCC(=O)O)c3[nH]2)cc1
2000 nM | – | CC(=O)Nc1ccc(Cc2nc3c(=O)n(Cc4ccccc4F)c(=O)n(CC4CC4(CO)CO)c3[nH]2)cc1 (stereo unspecified)
6600 nM | – | CC(=O)Nc1ccc(Cc2nc3c(=O)n(Cc4ccccc4F)c(=O)n(CCCC(N)=O)c3[nH]2)cc1
1950 nM | 200 nM | CC(=O)Nc1ccc(Cc2nc3c(=O)n(Cc4ccccc4F)c(=O)n(CCCC(=O)O)c3[nH]2)cc1
2270 nM | – | CC(=O)Nc1ccc(Cc2nc3c(=O)n(Cc4ccccc4F)c(=O)n(CC4C[C@@H]4CO)c3[nH]2)cc1 (stereo partly specified)
1180 nM | – | CC(=O)Nc1ccc(Cc2nc3c(=O)n(Cc4ccccc4F)c(=O)n(CC4CCC4)c3[nH]2)cc1
560 nM | – | CC(=O)Nc1ccc(Cc2nc3c(=O)n(Cc4ccccc4F)c(=O)n(CC4C[C@@H]4C(=O)O)c3[nH]2)cc1 (stereo partly specified)
